Legend:
[1] = tested on: DS-induced colitis in C3H/HeJ male mice; assay: Calcitriol prevention of DS-induced colitis; format: in vivo, mouse
Protocol: Fecal hemoglobin was analyzed in the mice to determine bleeding from a breached intestinal barrier. […] Co., Needham Heights, Mass.), the supernatants were decanted into fresh tubes and stored frozen at -20° C. Hemoglobin in the supernatants was analyzed by a method adapted from Saitoh et al., Digestion, 56:67-75, 1995, and Liem et al., Anal. Biochem., 98:388-393, 1979, with rat hemoglobin as standard (Sigma-Aldrich). The supernatants were diluted 1:25 in TBS. […] The reaction was stopped with 100 μL of 2 M phosphoric acid, and the absorbance at 450 nm was measured with an MRX Revelation Microplate Reader (DYNEX Technologies). […] The mice were euthanized with an i.p. injection of pentobarbital. […] The fixed tissue was embedded in paraffin, sectioned at 6 μm, stained with hematoxylin and eosin, and examined by light microscopy. Scoring was conducted by a veterinary pathologist in blinded fashion. […] Clin. Invest., 98:1010-1020, 1996. The scores were summed to provide a total colitis score for each mouse. […] In particular, age-matched C3H/HeJ male mice were fed a synthetic diet (see Example 6) with or without calcitriol or prednisolone for one week. […] The mice were weighed every 3-4 days thereafter. […] Serum and colon tissue were collected on day 28. Most assays were performed as described in Example 6, and the terminal serum calcium assay was performed as described below. […] The serum was decanted and stored frozen at -20° C. The samples, standards, and buffer blanks (2 μL each) were aliquoted into duplicate wells of a 96-well plate. Calcium reagent working solution (0.25 mL), prepared according to the manufacturer's directions (Sigma Diagnostics, St. Louis, Mo.), was added to each well, and the absorbance at 570 nm was measured.

C3H/HeJ male mice = assay: Serum calcium after calcitriol feeding, C3H/HeJ male mice; format: in vivo, mouse
Protocol: In order to determine serum calcium, blood was collected, allowed to clot, and centrifuged (5,000×g for 10 minutes) at 6° C. The serum was decanted and stored frozen at −20° C. The samples, standards, and buffer blanks (2 μL each) were aliquoted into duplicate wells of a 96-well plate. Calcium reagent working solution (0.25 mL), prepared according to the manufacturer's directions (Sigma Diagnostics, St. Louis, Mo.), was added to each well, and the absorbance at 570 nm was measured.

C=C1/C(=C\C=C2/CCC[C@]3(C)[C@@H]([C@H](C)CCCC(C)(C)O)CC[C@@H]23)C[C@@H](O)C[C@@H]1O [Calcitriol, 1,25 dihydroxyvitamin D3]
Peak Hg in Stool ([1]; 50 ng/day in diet from day −7, 1% DS days 0 to 5): 4.3 ± 4.4 mg/g | Effect of pre-treatment on severity of DS-induced IBD ([1]; 50 ng/day pre-treatment): reduced the severity of DS-induced IBD | Colon Histopathology, Distal colon ([1]; 50 ng/day, 1% DS, score 0 to 4): 0.6 ± 0.9 | Colon histopathology, Medial colon ([1]; 50 ng/day, 1% DS, score 0 to 4): 0.4 ± 0.9 | Colon histopathology, Proximal colon ([1]; 50 ng/day, 1% DS, score 0 to 4): 0.4 ± 0.5 | Colon histopathology, Rectum ([1]; 50 ng/day, 1% DS, score 0 to 4): 1.2 ± 1.1 | Colon histopathology, Sum ([1]; 50 ng/day, 1% DS, total score 0 to 16): 2.6 ± 1.9 | Peak Hg in the stool, lower than that in the prednisolone-treated group ([1]; calcitriol 50 ng/day vs prednisolone 50 ng/day): 65% | Peak Hg in the stool, lower than that in the untreated group ([1]; calcitriol 50 ng/day vs untreated DS group): 37% | Total colon histopathology score, lower than the score of the untreated group B ([1]; calcitriol group C vs group B): 61% | Total colon histopathology score, lower than the score of the prednisolone-treated group D ([1]; calcitriol group C vs group D): 51% | Serum Calcium C3H/HeJ male (C3H/HeJ male mice; 10 ng/d for two weeks): 10.5 ± 2.1 mg/dL | Serum Calcium C3H/HeJ male (C3H/HeJ male mice; 20 ng/d for two weeks): 10.1 ± 2.7 mg/dL | Serum Calcium C3H/HeJ male (C3H/HeJ male mice; 50 ng/d for two weeks): 9.9 ± 0.6 mg/dL | Serum Calcium C3H/HeJ male (C3H/HeJ male mice; 100 ng/d for two weeks): 10.1 ± 1.8 mg/dL | Tolerability of the calcitriol doses (C3H/HeJ male mice; mouse, in vivo): well tolerated

Reference: US6989377B2, “Treating vitamin D responsive diseases” (priority 1999, dated 2006)
